Experimental data published in patent US11140903B2, “Fungicidal compositions and methods” (Bayer CropScience LP, priority 2010, dated 2021).

What was measured:
[1] = test system: Botrytis; experiment: Fluopyram efficacy by fungus (Table 3)
[2] = test system: Sclerotinia; experiment: Fluopyram efficacy by fungus (Table 3)
[3] = test system: Monilinia; experiment: Fluopyram efficacy by fungus (Table 3)
[4] = test system: Mycosphaerella; experiment: Fluopyram efficacy by fungus (Table 3)
[5] = test system: Sigatoka; experiment: Fluopyram efficacy by fungus (Table 3)
[6] = test system: Venturia; experiment: Fluopyram efficacy by fungus (Table 3)
[7] = test system: Alternaria; experiment: Fluopyram efficacy by fungus (Table 3)
[8] = test system: Pyrenophora; experiment: Fluopyram efficacy by fungus (Table 3)
[9] = test system: Anthracnose; experiment: Fluopyram efficacy by fungus (Table 3)
[10] = test system: Colletotrichum; experiment: Fluopyram efficacy by fungus (Table 3)
Text: (§1) Without wishing to be bound by theory, the applicant hypothesizes that the decreased incidence and severity of SDS observed in plants from seed treated with fluopyram contributes to improved vigor and reduced defoliation, which in turn contributes to improved yield.

[11] = test system: Fusarium; experiment: Fluopyram efficacy by fungus (Table 3)
Text: as §1

[12] = test system: Rusts; experiment: Fluopyram efficacy by fungus (Table 3)
Text: as §1

[13] = test system: sudden death syndrome (SDS); experiment: Soybean seed treatment: resistance to SDS (incidence, severity, defoliation); assay type: in vivo, Glycine max (L.) Merr.
Protocol: (§2) Soybean seeds (Glycine max (L.) Merr., an indeterminate line) were treated with Trilex® 2000 (7.12% (w/v) trifloxystrobin, 5.69% (w/v) metalaxyl), Gaucho® 600 FS (48.7%, (w/v) imidacloprid), Votivo® 240 FS (21.5%, (w/v) Bacillus firmus strain 1-1582), and fluopyram (41.5%, (w/v)) in the amounts and combinations shown in TABLE 1.
(§3) Seed growth and resistance to SDS were evaluated. Data on the incidence and severity of disease, plant vigor, plant count, plant density, defoliation, and yield were collected. Identification of SDS was based on the visual symptoms described in “Compendium of Soybean Diseases” (Glen Lee Hartman, J. B. Sinclair, and John Clark Rupe, eds. Am. Phytopathological Soc. 1999).
Disease incidence was defined as the percentage of plants in the plot with visible symptoms of SDS. […] The values above each bar in FIG. 1 are the value of that bar along they-axis.
Symptoms of disease severity were determined as percent severity, on a scale of 0% to 100%, by examining the leaf area on the tops of plants and determining the area affected by SDS, expressed as a percentage of the total area. […] The error bars of FIG. 2 represent standard error, and the values above each bar are the value of that bar along the y-axis.
Defoliation was defined as the percentage of plants showing evidence of defoliation in a given plot (i.e., on a scale of 0% to 100%). […] The values above each bar are the value of that bar along the y-axis.

[14] = test system: soybean plants; experiment: Soybean seed treatment: plant vigor, count density and yield; assay type: in vivo, Glycine max (L.) Merr.
Protocol: as §2, §3
Vigor ratings, based on visual assessments of plant health, were collected according to the system shown in TABLE 2, with 1 being a healthy and vigorous plant and 6 being extremely low vigor.
The error bars of FIG. 3 represent standard error, and the values within each bar are the value of that bar along the y-axis.
Plant density was calculated as the change in density versus controls. […] The values above or below each bar are the value of that bar along the y-axis.
To determine yield, soybeans were harvested from each plot, weighed, and their moisture content determined. The data from each treatment were normalized to the standard weight of 60 pounds of soybeans at 13% moisture. […] The values above or below each bar are the value of that bar along the y-axis.

[15] = test system: Powdery mildews; settings: Fungus: Powdery mildews
[16] = test system: Didymella; settings: Fungus: Didymella
[17] = test system: Cylindrocladium; settings: Fungus: Cylindrocladium
[18] = test system: Septoria; settings: Fungus: Septoria

Compound: O=C(NCCc1ncc(C(F)(F)F)cc1Cl)c1ccccc1C(F)(F)F [Fluopyram, N-{2-[3-chloro-5-(trifluoromethyl)-2-pyridinyl]ethyl}-2-trifluoromethylbenzamide]
- Fluopyram Efficacy [1]: ++++
- Fluopyram Efficacy [2]: ++++
- Fluopyram Efficacy [3]: ++++
- Fluopyram Efficacy [4]: ++++
- Fluopyram Efficacy [5]: ++++
- Fluopyram Efficacy [6]: +++
- Fluopyram Efficacy [7]: +++
- Fluopyram Efficacy [8]: +++
- Fluopyram Efficacy [9]: +
- Fluopyram Efficacy [10]: ++
- Fluopyram Efficacy ([11]; Fungus: Fusarium): +
- efficacy of fluopyram against Fusarium ([11]; relative to other fungi): low
- Fluopyram Efficacy [12]: +
- Disease incidence (percentage of plants in the plot with visible symptoms of SDS) ([13]; FIG. 1, compared between seeds with and without fluopyram): significantly reduced disease incidence
- Disease severity (percent leaf area affected by SDS) ([13]; FIG. 2, compared between seeds with and without fluopyram): less disease severity
- Defoliation (percentage of plants showing evidence of defoliation in a plot) ([13]; FIG. 5, compared between seeds with and without fluopyram): less defoliation
- Count density (change in plant density versus control) ([14]; fluopyram alone, 0.17-0.67 mga/seed (columns 4-6), FIG. 4, versus control): decreased count density
- Vigor (visual vigor rating, scale 1-6 of Table 2) ([14]; soybean seed treatment, FIG. 3): not adversely affected
- Percent yield versus control ([14]; soybean seed treatment, FIG. 6, normalized to 60 pounds at 13% moisture, versus seeds not treated with fluopyram): greater percent yield
- Fluopyram Efficacy [15]: ++++
- Fluopyram Efficacy [16]: ++
- Fluopyram Efficacy [17]: ++
- Fluopyram Efficacy [18]: ++
